Data taken from the NIST ThermoML archive (doi:10.1021/acs.jced.8b00358).
± gives the expanded uncertainty stated by the source.

Experiment: molar heat capacity at constant pressure
Details: 83 kPa, Liquid, DSC

CCCCC(=O)OCC(COC(=O)CCCC)(COC(=O)CCCC)COC(=O)CCCC [pentaerythritol tetrapentanoate]
Details | molar heat capacity at constant pressure [J/K/mol]
263.14 K | 805.33 ± 34
264.15 K | 806.28 ± 34
265.15 K | 807.22 ± 34
266.14 K | 808.17 ± 34
267.14 K | 809.11 ± 35
268.15 K | 809.58 ± 35
269.14 K | 810.53 ± 35
270.14 K | 811.47 ± 35
271.15 K | 812.42 ± 35
272.14 K | 813.37 ± 35
273.14 K | 814.78 ± 35
274.14 K | 815.73 ± 35
275.15 K | 816.67 ± 34
276.14 K | 817.62 ± 35
277.14 K | 819.04 ± 35
278.15 K | 819.98 ± 35
279.15 K | 820.93 ± 35
280.15 K | 821.87 ± 35
281.14 K | 822.82 ± 35
282.15 K | 823.76 ± 35
283.15 K | 824.71 ± 34
284.15 K | 825.65 ± 35
285.15 K | 827.07 ± 35
286.14 K | 828.02 ± 35
287.14 K | 828.96 ± 35
288.15 K | 829.91 ± 35
289.15 K | 831.32 ± 35
290.14 K | 832.27 ± 35
291.14 K | 833.69 ± 35
292.14 K | 835.11 ± 35
293.14 K | 836.05 ± 35
294.15 K | 837.47 ± 35
295.14 K | 838.89 ± 35
296.15 K | 839.83 ± 35
297.14 K | 841.25 ± 35
298.14 K | 842.67 ± 35
299.15 K | 843.61 ± 35
300.14 K | 845.03 ± 35
301.15 K | 846.45 ± 35
302.14 K | 847.39 ± 35
303.15 K | 848.81 ± 35
304.15 K | 850.23 ± 35
305.14 K | 851.17 ± 35
306.15 K | 852.12 ± 35
307.15 K | 853.54 ± 35
308.14 K | 854.48 ± 35
309.14 K | 855.9 ± 35
310.15 K | 857.32 ± 35
311.15 K | 858.26 ± 35
312.14 K | 859.68 ± 35
313.15 K | 860.63 ± 35
314.14 K | 862.04 ± 35
315.15 K | 863.46 ± 35
316.14 K | 864.41 ± 35
317.15 K | 865.83 ± 35
318.15 K | 866.77 ± 35
319.14 K | 868.19 ± 35
320.15 K | 869.61 ± 35
321.15 K | 870.55 ± 35
322.14 K | 871.97 ± 35
323.14 K | 873.39 ± 35
324.15 K | 874.33 ± 35
325.14 K | 875.75 ± 35
326.15 K | 876.7 ± 35
327.15 K | 878.11 ± 35
328.15 K | 879.53 ± 35
329.14 K | 880.48 ± 36
330.15 K | 881.89 ± 36
331.15 K | 883.31 ± 36
332.14 K | 884.26 ± 36
333.14 K | 885.68 ± 36
334.15 K | 887.09 ± 36
335.14 K | 888.51 ± 36
336.14 K | 889.93 ± 36
337.14 K | 891.35 ± 36
338.14 K | 892.29 ± 36
339.15 K | 893.71 ± 36
340.14 K | 895.13 ± 36
341.14 K | 896.07 ± 36
342.15 K | 897.02 ± 36
343.14 K | 898.44 ± 36
344.15 K | 899.38 ± 36
345.15 K | 900.8 ± 36
346.15 K | 902.22 ± 36
347.14 K | 903.16 ± 36
348.14 K | 904.58 ± 36
349.15 K | 906 ± 36
350.14 K | 907.42 ± 36
351.14 K | 908.36 ± 36
352.14 K | 909.78 ± 36
353.14 K | 911.2 ± 37
354.15 K | 912.61 ± 37
355.14 K | 913.56 ± 37
356.15 K | 914.98 ± 37
357.15 K | 916.39 ± 37
358.14 K | 917.81 ± 37
359.15 K | 918.76 ± 37
360.15 K | 920.18 ± 37
361.14 K | 921.59 ± 37
